From article PMC8883573, “New Insights Into the Function of Flavohemoglobin in Mycobacterium tuberculosis: Role as a NADPH-Dependent Disulfide Reductase and D-Lactate-Dependent Mycothione Reductase” (Frontiers in Cellular and Infection Microbiology, 2022)

Biological target: T1, MtbFHb (Mycobacterium tuberculosis, UniProt Q7ARS9)
T1 construct: gene Rv0385
T1 sequence (Q7ARS9 entry or part of it): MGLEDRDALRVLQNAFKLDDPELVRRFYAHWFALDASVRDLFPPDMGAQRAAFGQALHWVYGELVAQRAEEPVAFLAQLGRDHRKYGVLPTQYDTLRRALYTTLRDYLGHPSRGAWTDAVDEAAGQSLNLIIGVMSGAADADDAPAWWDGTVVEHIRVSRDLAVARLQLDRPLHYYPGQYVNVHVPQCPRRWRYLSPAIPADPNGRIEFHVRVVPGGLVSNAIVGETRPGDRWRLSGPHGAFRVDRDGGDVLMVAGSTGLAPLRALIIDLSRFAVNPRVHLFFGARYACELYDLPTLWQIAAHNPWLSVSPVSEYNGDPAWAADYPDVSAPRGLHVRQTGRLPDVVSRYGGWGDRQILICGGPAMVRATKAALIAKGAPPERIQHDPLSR

## C[C@@H](O)C(=O)O [D-lactate]
  far-UV circular dichroism (conformational change): These results confirmed a conformational change in MtbFHb during its interaction with D-lactate
